{
  "source": "patent US20110020359A1",
  "about": "“METHODS AND COMPOSITIONS FOR TREATING NEURONAL DAMAGE OR DEGENERATION” (California Institute of Technology, priority 2009, published 2011)",
  "molecules": {"B1": {"name": "Full-length EphB3: full-length Ephrin receptor B3 (protein, UniProt P54753 1-998, looked up)", "chain": "MARARPPPPPSPPPGLLPLLPPLLLLPLLLLPAGCRALEETLMDTKWVTSELAWTSHPESGWEEVSGYDEAMNPIRTYQVCNVRESSQNNWLRTGFIWRRDVQRVYVELKFTVRDCNSIPNIPGSCKETFNLFYYEADSDVASASSPFWMENPYVKVDTIAPDESFSRLDAGRVNTKVRSFGPLSKAGFYLAFQDQGACMSLISVRAFYKKCASTTAGFALFPETLTGAEPTSLVIAPGTCIPNAVEVSVPLKLYCNGDGEWMVPVGACTCATGHEPAAKESQCRPCPPGSYKAKQGEGPCLPCPPNSRTTSPAASICTCHNNFYRADSDSADSACTTVPSPPRGVISNVNETSLILEWSEPRDLGGRDDLLYNVICKKCHGAGGASACSRCDDNVEFVPRQLGLTERRVHISHLLAHTRYTFEVQAVNGVSGKSPLPPRYAAVNITTNQAAPSEVPTLRLHSSSGSSLTLSWAPPERPNGVILDYEMKYFEKSEGIASTVTSQMNSVQLDGLRPDARYVVQVRARTVAGYGQYSRPAEFETTSERGSGAQQLQEQLPLIVGSATAGLVFVVAVVVIAIVCLRKQRHGSDSEYTEKLQQYIAPGMKVYIDPFTYEDPNEAVREFAKEIDVSCVKIEEVIGAGEFGEVCRGRLKQPGRREVFVAIKTLKVGYTERQRRDFLSEASIMGQFDHPNIIRLEGVVTKSRPVMILTEFMENCALDSFLRLNDGQFTVIQLVGMLRGIAAGMKYLSEMNYVHRDLAARNILVNSNLVCKVSDFGLSRFLEDDPSDPTYTSSLGGKIPIRWTAPEAIAYRKFTSASDVWSYGIVMWEVMSYGERPYWDMSNQDVINAVEQDYRLPPPMDCPTALHQLMLDCWVRDRNLRPKFSQIVNTLDKLIRNAASLKVIASAQSGMSQPLLDRTVPDYTTFTTVGDWLDAIKMGRYKESFVSAGFASFDLVAQMTAEDLLRIGVTLAGHQKKILSSIQDMRLQMNQTLPVQV", "modifications": "full-length", "notes": "full-length Ephrin receptor B3"}, "B2": {"name": "OMgp: oligodendrocyte myelin protein (OMgp) (protein, UniProt P23515 25-417, looked up)", "Oligodendrocyte-myelin …": "ICPLQCICTERHRHVDCSGRNLSTLPSGLQENIIHLNLSYNHFTDLHNQLTQYTNLRTLDISNNRLESLPAHLPRSLWNMSAANNNIKLLDKSDTAYQWNLKYLDVSKNMLEKVVLIKNTLRSLEVLNLSSNKLWTVPTNMPSKLHIVDLSNNSLTQILPGTLINLTNLTHLYLHNNKFTFIPDQSFDQLFQLQEITLYNNRWSCDHKQNITYLLKWMMETKAHVIGTPCSTQISSLKEHNMYPTPSGFTSSLFTVSGMQTVDTINSLSVVTQPKVTKIPKQYRTKETTFGATLSKDTTFTSTDKAFVPYPEDTSTETINSHEAAAATLTIHLQDGMVTNTSLTSSTKSSPTPMTLSITSGMPNNFSEMPQQSTTLNLWREETTTNVKTPLPS"}},
  "key": {"[1]": {"tested_on": "Retinal ganglion cell axons", "experiment": "Optic nerve regeneration assay", "details": "counted at 125-μm intervals from the crush site", "method": "At 1-14 days post injury, mice are given an overdose of pentobarbital and are transcardially perfused with 4% PFA. Eyeballs still attached with the optic nerve are dissected and post-fixed in 4% PFA overnight. Following cryoprotection with 30% sucrose in PBS, tissues are embedded in O.C.T. and serial sectioned for 5-20 μm along the longitudinal direction of the nerve. For immunofluorescence labeling, the sections are washed with PBS, pre-incubated in a blocking buffer (approximately 1% BSA, 0.3%TX-100 in PBS) and followed by sequential incubations with primary antibodies, including mouse anti-CS-E (1:200), goat-anti-CTB (1:4000), or rabbit anti-IβIII-tubulin antibodies (Invitrogen). […] The retinal cryosections are mounted with Vectashield and visualized under a Nikon fluorescence microscope. To quantify the number of CTB-positive regenerating axons, the number of regenerating axons is counted at 125 μm stepwise from the crush site of the optic nerve. The total number of regenerating axons is estimated. To quantify the number of surviving retinal ganglion cells, the total number of βIII-tubulin positive cells is counted in at least 3 retinal sections per retina.\n(1.7 mg/ml) antibody treatment placed around the crush site of the nerve are studied. […] The extent of axonal regrowth is assessed 2 weeks after injury."}, "[2]": {"tested_on": "dissociated rat P5-9 CGN cultures", "experiment": "Cerebellar granule neuron (CGN) neurite outgrowth assay", "assay_type": "cell-based", "details": "P7 rat CGNs", "experimental": "Nitric acid-treated, 15-mm round German glass coverslips are coated with P-Orn in pH 6-8.5 borate buffer (at approximately 50 μg/ml) for about 1 hr at 37° C. and 5% CO2. CSPGs (at approximately 1 μg/ml) or polysaccharides enriched in the CS-A, CS-C, or CS-E sulfation motifs (at approximately 1 μg/ml) are coated on the P-Orn-coated coverslips overnight at 37° C. and 5% CO2. Cerebella from P5-9 Sprague Dawley rats are dissected, purified as described above, and cultured on the coated coverslips at a cell density of about 200 cells/mm^2. Neurons are grown in DMEM/F12, 1% FBS, and N1 supplement for about 24 hr.\nIn one example, inhibitors against MEK (PD98059, 25 μM; Calbiochem), EGFR (AG1478, 15 nM; Calbiochem), ROCK (Y27632, 5 μM; Calbiochem) and JNK (JNK Inhibitor II, 10 μM; Calbiochem) are added in solution at the start of culturing, and neurons are grown for 24 hr. For neurite outgrowth experiments from p75 knockout mice, cerebella from P5-7 mice, either C57BL/6 wild-type or p75−/− knockout mice, are dissected and purified as described above. Neurons are plated at a density of 200-300 cells/mm2 and cultured for about 24 hr. Cells are then fixed in 4% PFA/10% sucrose, immunostained with neuronal specific anti-class III β-tubulin antibody (TUJ1; Covance), and evaluated for neurite outgrowth. Neurons are imaged using a Nikon TE2000-S fluorescent microscope and quantified using the NIH software Image J. Statistical analysis is performed using the one-way ANOVA; n=50-200 cells per experiment.\nP7 rat CGNs are grown for 24 hours on CS-E (1 μg/ml) in the presence of the CS-E antibody (CS-E Ab; 10 μg/ml)."}, "[3]": {"experiment": "Pull-down with biotinylated CS-E", "assay_type": "binding", "details": "COS-7 cell lysates, immunoblot", "description": "Pull down assays can be useful for identifying proteins which bind to CS (e.g. CS-A, CS-C, or CS-E). Pull down assays can also be used for identifying agents that disrupt the binding between CS and a known binding partner. Full-length human p75 cDNA (amino acids 1-427; Open Biosystems) is ligated into a pcDNA3 vector (Invitrogen), modified to fuse an HA tag to the 5′ end of the insert. Human NgR (amino acids 27-473; imaGenes) is ligated into a modified pAPtag-5 vector (GenHunter) which fuses a secretion signal sequence and a c-myc tag to the 3′ end of the insert. COS-7 cells are transfected with either NgR-myc, p75-HA, or both using the Lipofectamine (Invitrogen) method. Cells are lysed about 2 days after transfection with 0.5-2% Triton X-100 in PBS containing a protease inhibitor mixture (Roche) by rocking for 15-90 min at 4° C. The lysates are clarified by centrifugation at 5-25,000 rpm for 1-30 min.\nBiotin is attached to the free amino group of the residual core peptides of CS-C and CS-E polysaccharides (Seikagaku). […]\nBiotinylated CS-C or CS-E (approximately 280 μg each) in 100-500 μl of PBS is added to streptavidin agarose resin (about 140 μl; Pierce) and incubated at room temperature for about 1 hr. […] NgR-myc and p75-HA are detected by immunoblotting with myc-tag (Cell Signaling) or HA-tag (Sigma) antibodies."}, "[4]": {"experiment": "Oligosaccharide microarray", "assay_type": "binding", "experimental": "Ozonolysis of the anomeric allyl group and linkage of CS compounds 1-41,2 to 1,2-(bisaminooxy)ethane3 proceeds as follows: oligosaccharide (0.51 μmol) is dissolved in MeOH (500 μL) and cooled to −78° C. O3 is bubbled through the reaction until a blue color persists (1 min). The reaction is then purged with N2 until colorless, quenched with Ph3P beads (3 mg), and gradually warmed to rt over 12 h. The reaction is filtered and the product concentrated to afford the desired aldehyde as a white solid. The aldehyde (0.51 μmol) is then reacted for 14 h at rt with 1,2-(bisaminooxy)ethane hydrochloride (1.4 mg, 15 μmol) that has been dissolved in H2O (100 μL) and pH adjusted to 5.0 with 1 M NaOH. The resulting oxime product is purified using a SepPak C18 column (500 mg, H2O) and Sephadex G-10 (CS-E disaccharide, H2O) or Sephadex G-25 (tetrasaccharides, H2O) to afford a white solid in quantitative yield (0.51 μmol). CS-A aminooxy: ESI MS: m/z: calculated for C32H48N4Na3O31S2: 1117.1; found 1117.0. CS-C aminooxy: ESI MS: m/z: calculated for C32H48N4Na3O31S2: 1117.1; found 1117.0. CS-E aminooxy: ESI MS: m/z: calculated for C32H46N4Na5O37S4: 1321.0; found 1321.0. CS-E di amminooxy: ESI MS: m/z: calculated for C18H28N3Na2O20S2: 716.1; found 716.0. […]"}},
  "data": [
    {"molecule": "chondroitinaseABC", "values": [
      {"measurement": "number of regenerating axons compared with control IgG", "setting": "[1]", "result": "significantly more regenerating axons"},
      {"measurement": "inhibition of neurite outgrowth after digestion of CS-E polysaccharides", "setting": "[2]", "result": "small extent of residual inhibition"}
    ]},
    {"molecule": "B1", "values": [
      {"measurement": "pull-down by CS-E", "setting": "[3]", "result": "is pulled down"}
    ]},
    {"molecule": "B2", "values": [
      {"measurement": "binding to CS-E polysaccharides, oligosaccharide microarray", "setting": "[4]", "result": "bind to CS-E polysaccharides"}
    ]}
  ]
}
